Biological target: T1, CCR2 (Homo sapiens, UniProt P41597)
T1 construct: host or cells: HEK293T, transient
T1 sequence (P41597 1-360 isoform P41597-2): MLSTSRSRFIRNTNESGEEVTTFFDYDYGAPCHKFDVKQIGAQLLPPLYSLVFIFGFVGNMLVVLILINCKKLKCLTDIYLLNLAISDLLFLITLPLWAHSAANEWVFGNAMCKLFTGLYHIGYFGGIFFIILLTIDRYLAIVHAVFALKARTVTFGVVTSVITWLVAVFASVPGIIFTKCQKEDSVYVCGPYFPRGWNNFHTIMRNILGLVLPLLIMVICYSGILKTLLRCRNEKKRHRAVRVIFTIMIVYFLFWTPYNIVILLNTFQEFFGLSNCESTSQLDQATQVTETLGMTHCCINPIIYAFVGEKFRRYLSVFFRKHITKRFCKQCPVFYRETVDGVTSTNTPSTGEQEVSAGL
Assay: Membrane-based NanoBRET saturation binding assay, CCR2_GSSG_Nluc membranes
Method: Emission spectra of Nluc -labeled CCR1 (CCR1_Nluc) protein: The emission spectra of CCR1_Nluc has already been reported by Toy et al.1 For a confirmation of the reported data with new CCR1_Nluc membrane batches, furimazine (Promega, Mannheim, Germany 1:2000) was added to the membrane preparations (2 µg protein/well). […]
NanoBRET binding assays: Membrane-based NanoBRET saturation assay: For the establishment of our NanoBRET binding assay, we referred to recently published protocols. […]
Then, 20 µL of the membrane preparations diluted in assay buffer (3 µg total protein/well) were added and the plates were incubated for 90 min at 37 °C. Subsequently, 5 µL of a furimazine solution (Promega, Mannheim, Germany, final assay dilution: 1:5,000) were added to each well (final assay volume: 35 µL) before measuring luminescence with a CLARIOstar microplate reader using 620/10 nm and 475/30 nm emission filters after 5 min of incubation in the dark. Bioluminescence resonance energy transfer (BRET) was determined as the ratio of acceptor fluorescence and donor luminescence. […] Specific binding signals were calculated as a difference of total and non-specific binding. If required, netBRET values were calculated as the difference between total BRET values and the values obtained in the absence of a fluorescent ligand. […]

| Kd [nM] | SMILES |
| --- | --- |
| 1980 ± 270 | CN(C)c1ccc2c(-c3cc(C(=O)NCCOCCOCc4cn(CCCC(=O)C5=C(O)C(=O)N(c6ccc(Cl)cc6F)C5C5CCCCC5)nn4)ccc3C(=O)[O-])c3ccc(=[N+](C)C)cc-3oc2c1 (centres unmarked) [compound 11] |
| 1690 ± 310 | CN(C)c1ccc2c(-c3cc(C(=O)NCCOCCOCc4cn(CCCC(=O)C5=C(O)C(=O)N(c6ccc(Br)cc6F)C5C5CCCCC5)nn4)ccc3C(=O)[O-])c3ccc(=[N+](C)C)cc-3oc2c1 (centres unmarked) [compound 12] |
